Assay [1] in a line: Counterscreen for AddAB inhibitors: absorbance-based bacterial cell-based high throughput dose response assay for inhibitors of bacterial viability. [Related pubchem assays (depositor defined):AID435030, AID449728, AID449731, AID488942, AID488955, AID488956]. It is filed as functional. (In general: Counterscreens check selectivity or assay interference.)
The next assay has as its target T1, Exodeoxyribonuclease V (Escherichia coli (strain K12), UniProt P04993+P07648+P08394).
T1 sequence (P04993 whole entry): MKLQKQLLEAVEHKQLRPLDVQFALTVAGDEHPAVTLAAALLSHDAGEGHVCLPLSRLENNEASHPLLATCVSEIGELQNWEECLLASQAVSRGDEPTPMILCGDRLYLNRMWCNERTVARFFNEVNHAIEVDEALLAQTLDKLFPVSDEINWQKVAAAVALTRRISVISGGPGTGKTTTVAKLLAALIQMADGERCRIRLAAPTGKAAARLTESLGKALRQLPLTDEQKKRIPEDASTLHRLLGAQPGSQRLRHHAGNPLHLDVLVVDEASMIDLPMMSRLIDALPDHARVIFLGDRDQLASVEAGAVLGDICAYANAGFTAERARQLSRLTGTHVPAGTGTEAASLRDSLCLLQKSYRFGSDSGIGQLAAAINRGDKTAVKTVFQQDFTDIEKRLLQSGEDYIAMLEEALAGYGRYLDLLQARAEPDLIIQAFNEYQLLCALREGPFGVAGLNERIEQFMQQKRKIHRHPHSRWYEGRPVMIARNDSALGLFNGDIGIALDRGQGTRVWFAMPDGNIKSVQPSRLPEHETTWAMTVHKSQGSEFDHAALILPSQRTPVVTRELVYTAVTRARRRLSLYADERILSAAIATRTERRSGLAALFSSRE
T1 sequence (P07648 whole entry): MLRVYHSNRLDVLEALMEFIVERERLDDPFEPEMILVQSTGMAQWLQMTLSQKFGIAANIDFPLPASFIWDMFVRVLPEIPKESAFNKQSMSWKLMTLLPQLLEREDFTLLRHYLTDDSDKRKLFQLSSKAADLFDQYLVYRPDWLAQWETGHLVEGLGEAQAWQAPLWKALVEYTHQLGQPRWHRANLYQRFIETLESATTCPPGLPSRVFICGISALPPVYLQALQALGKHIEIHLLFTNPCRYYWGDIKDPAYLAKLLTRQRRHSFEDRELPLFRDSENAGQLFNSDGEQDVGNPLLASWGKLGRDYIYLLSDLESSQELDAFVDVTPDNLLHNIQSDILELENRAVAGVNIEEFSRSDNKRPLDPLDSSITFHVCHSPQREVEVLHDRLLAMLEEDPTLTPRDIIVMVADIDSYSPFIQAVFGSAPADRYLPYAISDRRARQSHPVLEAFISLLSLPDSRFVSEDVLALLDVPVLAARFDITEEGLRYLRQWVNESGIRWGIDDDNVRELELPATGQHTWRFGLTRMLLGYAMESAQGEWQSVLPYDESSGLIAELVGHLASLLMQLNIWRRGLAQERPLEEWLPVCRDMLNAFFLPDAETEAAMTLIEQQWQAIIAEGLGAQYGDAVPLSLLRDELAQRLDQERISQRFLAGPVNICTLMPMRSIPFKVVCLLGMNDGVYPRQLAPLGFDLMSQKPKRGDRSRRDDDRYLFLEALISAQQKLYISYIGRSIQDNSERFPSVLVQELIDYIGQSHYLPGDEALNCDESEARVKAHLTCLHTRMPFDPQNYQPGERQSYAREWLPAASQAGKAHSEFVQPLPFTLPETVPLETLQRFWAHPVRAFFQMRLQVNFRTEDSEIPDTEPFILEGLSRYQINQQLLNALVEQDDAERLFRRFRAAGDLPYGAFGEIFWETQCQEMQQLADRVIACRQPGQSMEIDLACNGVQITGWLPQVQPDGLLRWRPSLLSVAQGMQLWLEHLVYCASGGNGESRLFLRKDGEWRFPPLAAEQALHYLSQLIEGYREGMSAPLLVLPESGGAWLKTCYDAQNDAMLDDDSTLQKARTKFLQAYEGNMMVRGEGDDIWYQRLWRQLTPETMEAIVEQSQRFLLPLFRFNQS
T1 sequence (P08394 whole entry): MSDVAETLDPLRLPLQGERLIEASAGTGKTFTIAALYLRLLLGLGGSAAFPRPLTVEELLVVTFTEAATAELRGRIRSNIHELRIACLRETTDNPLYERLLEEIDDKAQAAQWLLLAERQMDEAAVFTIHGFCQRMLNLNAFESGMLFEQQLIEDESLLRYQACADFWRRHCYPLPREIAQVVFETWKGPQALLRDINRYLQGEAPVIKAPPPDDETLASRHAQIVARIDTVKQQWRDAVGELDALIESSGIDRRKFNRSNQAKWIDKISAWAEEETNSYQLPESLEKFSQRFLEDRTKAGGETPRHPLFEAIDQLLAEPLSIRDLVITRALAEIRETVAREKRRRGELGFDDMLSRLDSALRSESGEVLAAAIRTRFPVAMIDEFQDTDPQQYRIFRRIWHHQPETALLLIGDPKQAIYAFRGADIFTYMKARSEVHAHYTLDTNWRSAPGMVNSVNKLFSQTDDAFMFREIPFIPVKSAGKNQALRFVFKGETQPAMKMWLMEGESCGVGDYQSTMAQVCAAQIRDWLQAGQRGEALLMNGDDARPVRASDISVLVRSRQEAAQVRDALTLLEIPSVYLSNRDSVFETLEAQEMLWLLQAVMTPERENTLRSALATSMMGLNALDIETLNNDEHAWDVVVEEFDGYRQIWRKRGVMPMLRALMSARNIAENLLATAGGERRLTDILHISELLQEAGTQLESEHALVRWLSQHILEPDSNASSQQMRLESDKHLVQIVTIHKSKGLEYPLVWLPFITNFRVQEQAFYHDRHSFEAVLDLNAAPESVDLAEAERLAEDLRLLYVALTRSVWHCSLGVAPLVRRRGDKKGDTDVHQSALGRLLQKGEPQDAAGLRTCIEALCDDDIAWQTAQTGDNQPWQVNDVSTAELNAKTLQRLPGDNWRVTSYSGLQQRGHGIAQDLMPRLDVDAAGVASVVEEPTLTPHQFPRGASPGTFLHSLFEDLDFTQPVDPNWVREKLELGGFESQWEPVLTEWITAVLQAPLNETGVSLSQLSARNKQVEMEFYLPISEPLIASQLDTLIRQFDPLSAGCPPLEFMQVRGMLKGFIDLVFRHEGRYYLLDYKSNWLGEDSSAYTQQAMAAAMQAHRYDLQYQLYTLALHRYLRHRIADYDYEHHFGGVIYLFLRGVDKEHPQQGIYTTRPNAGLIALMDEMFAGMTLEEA
The assay is described as follows: E. coli RecBCD inhibitors, dose response, counter-screen for AddAB inhibitor project, absorbance, V66 E. coli, mutant T4 phage (AID 492957). It is filed as functional, cell-based, Escherichia coli str. K-12 substr. MG1655.

A further assay has as its target T2, Coagulation factor XII (Homo sapiens, UniProt P00748).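 Also: activated factor XIIa alpha cleaving a fluorogenic AMC peptide substrate; inhibitor potency from loss of enzyme activity.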
T2 sequence (P00748 whole entry): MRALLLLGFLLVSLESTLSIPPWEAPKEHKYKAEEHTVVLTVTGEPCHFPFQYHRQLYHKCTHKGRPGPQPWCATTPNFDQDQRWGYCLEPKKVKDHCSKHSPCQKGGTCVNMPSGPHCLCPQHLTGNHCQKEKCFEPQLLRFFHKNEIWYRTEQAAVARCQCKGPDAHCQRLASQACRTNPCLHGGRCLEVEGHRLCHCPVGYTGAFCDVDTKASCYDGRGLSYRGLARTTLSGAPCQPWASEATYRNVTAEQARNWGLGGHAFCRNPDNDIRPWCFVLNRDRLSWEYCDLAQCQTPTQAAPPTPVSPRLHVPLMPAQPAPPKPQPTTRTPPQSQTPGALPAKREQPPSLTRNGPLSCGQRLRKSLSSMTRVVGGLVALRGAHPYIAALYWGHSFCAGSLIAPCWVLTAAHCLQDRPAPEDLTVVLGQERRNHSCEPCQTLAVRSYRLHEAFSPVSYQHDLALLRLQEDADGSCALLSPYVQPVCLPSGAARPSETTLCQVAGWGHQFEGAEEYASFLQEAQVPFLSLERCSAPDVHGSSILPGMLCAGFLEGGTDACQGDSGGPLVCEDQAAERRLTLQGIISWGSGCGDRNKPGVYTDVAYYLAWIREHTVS
The class given is functional.

A further assay relates to H9c2. The assay is described as follows: cells. The class given is functional, cell-based. Particulars: Rattus norvegicus, H9c2, Myocardium.
A further assay addresses Troponin, cardiac muscle (Homo sapiens, UniProt P19429+P45379+P63316). The assay is described as follows: Fluorescence-based biochemical high throughput dose response assay for activators of the calcium sensitivity of cardiac Regulated Thin Filaments (RTF). [Related pubchem assays (depositor defined):AID493008, AID493018, AID504382, AID504383]. The class given is protein-complex assay.

Assay [2] deals with DNA dC->dU-editing enzyme APOBEC-3G (Homo sapiens, UniProt Q9HC16). The class given is functional.
Assay [3] deals with DNA dC->dU-editing enzyme APOBEC-3A (Homo sapiens, UniProt P31941). The assay is described as follows: Dose Response confirmation of small molecule APOBEC3A DNA Deaminase Inhibitors via a fluorescence-based single-stranded DNA deaminase assay. [Related pubchem assays (depositor defined):AID493011, AID493024]. It is filed as functional.
The target in assay [4] is T3, Carboxy-terminal domain RNA polymerase II polypeptide A small phosphatase 1 (Homo sapiens, UniProt Q9GZU7).
T3 sequence (Q9GZU7 whole entry): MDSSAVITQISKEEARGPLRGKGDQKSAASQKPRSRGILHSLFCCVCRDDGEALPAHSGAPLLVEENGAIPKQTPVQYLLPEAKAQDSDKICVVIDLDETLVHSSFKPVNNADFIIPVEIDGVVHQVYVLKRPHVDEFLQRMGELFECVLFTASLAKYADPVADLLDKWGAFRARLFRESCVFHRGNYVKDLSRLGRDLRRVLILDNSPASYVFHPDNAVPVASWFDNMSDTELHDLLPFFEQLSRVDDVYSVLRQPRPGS
The assay is described as follows: inhibitors of CTDSP1, concentration-response testing, biochemical assay, absorbance-based, actives from ultra-high-throughput screening (AID 540297). It is filed as functional.

Assay [5] addresses T4, Calpain-2 catalytic subunit (Sus scrofa, UniProt P43367).
T4 sequence (P43367 whole entry): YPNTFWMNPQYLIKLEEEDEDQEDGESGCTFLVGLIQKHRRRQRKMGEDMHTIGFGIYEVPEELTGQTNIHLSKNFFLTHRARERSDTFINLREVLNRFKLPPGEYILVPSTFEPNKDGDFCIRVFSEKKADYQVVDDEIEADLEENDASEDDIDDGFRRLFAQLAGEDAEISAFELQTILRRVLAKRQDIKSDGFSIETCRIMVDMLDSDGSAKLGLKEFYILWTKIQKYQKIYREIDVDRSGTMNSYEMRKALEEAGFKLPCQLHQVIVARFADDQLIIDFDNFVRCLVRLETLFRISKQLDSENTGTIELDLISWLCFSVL
The assay is described as follows: pig calpain II inhibitor potency, dose response, biochemical, fluorogenic peptide substrate (AID 1420). The class given is functional.

The subject of assay [6] is HEK293. The assay is described as follows: cells. Particulars: Homo sapiens.
In assay [7] the test system is HEK293. Description: cells. Particulars: Homo sapiens. The source holds these as a separate data set.
Assay [8] addresses T5, Heat shock factor protein 1 (Mus musculus, UniProt P38532).
T5 sequence (P38532 whole entry): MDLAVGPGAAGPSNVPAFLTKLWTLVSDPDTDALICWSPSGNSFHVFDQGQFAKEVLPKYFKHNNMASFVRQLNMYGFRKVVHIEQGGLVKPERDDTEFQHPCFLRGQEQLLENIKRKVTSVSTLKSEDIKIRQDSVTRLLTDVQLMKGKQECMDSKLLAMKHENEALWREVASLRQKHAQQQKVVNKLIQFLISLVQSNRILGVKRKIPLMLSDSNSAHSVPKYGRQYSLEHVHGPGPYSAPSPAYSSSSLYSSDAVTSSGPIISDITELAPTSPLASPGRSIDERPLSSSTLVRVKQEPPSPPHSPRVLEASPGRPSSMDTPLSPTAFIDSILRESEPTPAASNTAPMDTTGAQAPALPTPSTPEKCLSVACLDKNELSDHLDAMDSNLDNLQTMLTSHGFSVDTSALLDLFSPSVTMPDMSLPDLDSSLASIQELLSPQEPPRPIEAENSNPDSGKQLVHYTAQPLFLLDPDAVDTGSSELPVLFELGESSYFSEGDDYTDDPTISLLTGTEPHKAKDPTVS
Description: inhibition of MG132-induced HSE-luciferase signal, confirmation, cell-based, NIH3T3, luminescence, dose retest (AID 2382).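 Also: NIH3T3 fibroblasts with HSF1-driven luciferase reporter stressed by proteasome inhibitor MG132; luminescence from HSF1-driven luciferase expression after 8 hours of MG132 stress.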 It is filed as functional.

Molecules are shown by their SMILES. Calls of active or inactive are those of the source. Bounds are passed on as bounds.

Sequence of DNA dC->dU-editing enzyme APOBEC-3A (P31941 whole entry, the tested form may be a part): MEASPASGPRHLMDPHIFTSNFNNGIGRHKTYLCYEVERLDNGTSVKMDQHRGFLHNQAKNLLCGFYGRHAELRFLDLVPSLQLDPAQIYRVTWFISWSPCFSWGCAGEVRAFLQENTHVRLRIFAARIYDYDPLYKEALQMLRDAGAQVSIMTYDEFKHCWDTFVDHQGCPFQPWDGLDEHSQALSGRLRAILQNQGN
Sequence of DNA dC->dU-editing enzyme APOBEC-3G (Q9HC16 whole entry): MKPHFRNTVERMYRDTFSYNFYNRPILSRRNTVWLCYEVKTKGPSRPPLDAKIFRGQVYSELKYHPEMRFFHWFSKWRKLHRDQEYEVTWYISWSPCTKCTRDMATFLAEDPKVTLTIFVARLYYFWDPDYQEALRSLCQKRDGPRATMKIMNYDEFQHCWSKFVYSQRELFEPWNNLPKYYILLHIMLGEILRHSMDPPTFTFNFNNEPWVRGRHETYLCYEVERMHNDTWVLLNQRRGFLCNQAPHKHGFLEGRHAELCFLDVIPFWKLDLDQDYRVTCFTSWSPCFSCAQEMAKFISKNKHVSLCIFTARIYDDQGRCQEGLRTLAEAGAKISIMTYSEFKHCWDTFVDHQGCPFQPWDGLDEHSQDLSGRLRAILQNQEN

Regarding `CC(=O)c1ccc(NC(S)=NC(NC(=O)c2ccco2)C(Cl)(Cl)Cl)cc1` (stereo not given), the IC50 (in assay [1]; at Exodeoxyribonuclease V) was > 119 µM (inactive) in each case. Consider `CC1Cc2ccccc2N1S(=O)(=O)c1cccc2nsnc12` (stereo not given), for which, on Coagulation factor XII, the IC50 is > 50 µM (inactive). As for `S=C(Nc1ccc(N2CCOCC2)cc1)Nc1ccc2nc(-c3ccco3)c(-c3ccco3)nc2c1`, the IC50 in the assay with H9c2 is > 79 µM (inactive). For the same compound, the EC50 on Troponin, cardiac muscle was 2.92 µM (active). On to `CCOc1ccc(/N=C2/SCCCN2C)cc1`, for which the IC50 in assay [2] was 2.35 µM (active); in [3], 2.19 µM (active); in assay [4] it was 17 µM (active). Turning to `Cc1ccc(C(=O)Nc2ccc3c(c2)ncn3C)cc1`, the EC50 on Troponin, cardiac muscle is > 71.4 µM (inactive). `O=C(c1ccc(N2CCCC2=O)cc1)N1CCCCCC1`: the IC50 is > 50 µM (inactive) at Coagulation factor XII and 6.62 µM (not active) in assay [5]. `CCN(CC)S(=O)(=O)c1cc(NC(=O)CSCc2c(C)noc2C)ccc1C`: the EC50 with HEK293 [6] and with HEK293 [7] was > 59.6 µM (inactive) each time. On to `COc1ccc(CNC(=O)c2sc(=S)n(-c3ccccc3)c2N)cc1`, for which the EC50 was > 71.5 µM (inactive) on Troponin, cardiac muscle and > 195 µM (not active) in [8].

What is called IC50 is the midpoint of a concentration-inhibition curve. Broadly, the EC50 is the concentration needed to bring the measured effect to its halfway point.

Values taken from ChEMBL document CHEMBL1201862, “PubChem BioAssay data set” (2004).
